Test results reported in PubChem BioAssay (NCI).
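Step 1: Grow cells in 96-well plates. Step 2: Expose to compound for 48 hours at 5 concentrations. Step 3: Interpolate endpoints linearly; if unreached, use highest concentration. Definition used: TGI = concentration required for complete inhibition of growth.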

Columns and labels:
Test in all cases: DTP human tumour cell line panel, 48 h
[1] = system: OVCAR-5 ovarian
[2] = system: UACC-62 melanoma
[3] = system: RXF 393 renal
[4] = system: SK-MEL-28 melanoma
[5] = system: NCI-H23 lung
[6] = system: COLO 205 colon
[7] = system: HL-60(TB) leukemia
[8] = system: KM12 colon
[9] = system: HOP-18 NSCLC
[10] = system: OVCAR-4 ovarian
[11] = system: HOP-92 NSCLC
[12] = system: A549 NSCLC
[13] = system: NCI-H460 lung
[14] = system: DMS 114 small cell lung
[15] = system: M19-MEL melanoma
[16] = system: SF-539 CNS
[17] = system: HCT-116 colon
[18] = system: TK-10 renal
[19] = system: SF-295 CNS
[20] = system: NCI-H522 lung
[21] = system: 786-0 renal
[22] = system: DMS 273 small cell lung
[23] = system: HOP-62 NSCLC
[24] = system: NCI-H226 lung
[25] = system: CCRF-CEM leukemia
[26] = system: IGROV1 ovarian
[27] = system: M14 melanoma
[28] = system: UO-31 renal
[29] = system: HT29 colon
[30] = system: SR leukemia
[31] = system: CAKI-1 renal
[32] = system: A498 renal
[33] = system: LXFL 529 NSCLC
[34] = system: SW-620 colon
[35] = system: ACHN renal
[36] = system: MOLT-4 leukemia
[37] = system: SK-MEL-2 melanoma
[38] = system: SF-268 CNS
[39] = system: SN12C renal
[40] = system: MALME-3M melanoma
[41] = system: U251 CNS
[42] = system: SNB-75 CNS
[43] = system: SK-MEL-5 melanoma
[44] = system: SK-OV-3 ovarian
[45] = system: RPMI-8226 leukemia
[46] = system: LOX IMVI melanoma
[47] = system: HCT-15 colon
[48] = system: UACC-257 melanoma
[49] = system: DLD-1 colon
[50] = system: OVCAR-8 ovarian
[51] = system: K-562 leukemia
[52] = system: MCF7 breast
[53] = system: DU-145 prostate
[54] = system: HCC-2998 colon
[55] = system: PC-3 prostate
[56] = system: HS 578T breast
[57] = system: SNB-19 CNS
[58] = system: NCI/ADR-RES ovarian
[59] = system: BT-549 breast
[60] = system: OVCAR-3 ovarian
[61] = system: EKVX NSCLC
[62] = system: MDA-MB-435
[63] = system: T-47D breast
[64] = system: MDA-MB-231 breast
[65] = system: MDA-N

In the case of `O=c1c2ccccc2nc(-c2ccccc2)n1NC(=S)Nc1ccc(Cl)cc1[N+](=O)[O-]`, the TGI [1] is reported as > 100 µM, the TGI [2] is reported as > 100 µM and the TGI [3] is reported as > 100 µM. For the same molecule, the TGI [4] was 82.4 µM, the TGI [5] was > 100 µM and the TGI [6] was > 100 µM. The TGI [7] was > 100 µM, the TGI [8] was > 100 µM and the TGI [9] was > 100 µM. The TGI [10] was > 100 µM, the TGI [11] was > 100 µM and the TGI [12] was > 100 µM. The TGI [13] was > 100 µM, the TGI [14] was > 100 µM and the TGI [15] was > 100 µM. For the same molecule, the TGI [16] was > 100 µM, the TGI [17] was > 100 µM and the TGI [18] was > 100 µM. The TGI [19] was > 100 µM, the TGI [20] was > 100 µM and the TGI [21] was > 100 µM. The TGI [22] was > 100 µM, the TGI [23] was > 100 µM and the TGI [24] was 82.4 µM. For the same molecule, the TGI [25] was > 100 µM, the TGI [26] was > 100 µM and the TGI [27] was > 100 µM. The TGI [28] was > 100 µM, the TGI [29] was > 100 µM and the TGI [30] was > 100 µM. The TGI [31] was > 100 µM, the TGI [32] was > 100 µM and the TGI [33] was > 100 µM. The TGI [34] was > 100 µM, the TGI [35] was > 100 µM and the TGI [36] was > 100 µM. The TGI [37] was > 100 µM, the TGI [38] was > 100 µM and the TGI [39] was > 100 µM. For the same molecule, the TGI [40] was > 100 µM, the TGI [41] was > 100 µM and the TGI [42] was > 100 µM. For the same molecule, the TGI [43] was > 100 µM, the TGI [44] was > 100 µM and the TGI [45] was > 100 µM. The TGI [46] was > 100 µM, the TGI [47] was > 100 µM and the TGI [48] was > 100 µM. For the same molecule, the TGI [49] was > 100 µM, the TGI [50] was > 100 µM and the TGI [51] was > 100 µM.
With `C[C@]12C=CC(=O)C=C1CC[C@@H]1[C@@H]2C(=O)C[C@@]2(C)[C@H]1CC[C@]2(O)C(=O)CO` the TGI [52] was > 100 µM, the TGI [1] was > 100 µM and the TGI [2] was > 100 µM. For the same molecule, the TGI [3] was > 100 µM, the TGI [53] was > 100 µM and the TGI [4] was > 100 µM. The TGI [5] was > 100 µM, the TGI [54] was > 100 µM and the TGI [6] was > 100 µM. For the same molecule, the TGI [7] was > 100 µM, the TGI [8] was > 100 µM and the TGI [10] was > 100 µM. The TGI [11] was > 100 µM, the TGI [12] was > 100 µM and the TGI [55] was > 100 µM. The TGI [56] was > 100 µM, the TGI [13] was > 100 µM and the TGI [16] was > 100 µM. The TGI [17] was > 100 µM, the TGI [18] was > 100 µM and the TGI [19] was > 100 µM. For the same molecule, the TGI [20] was > 100 µM, the TGI [21] was > 100 µM and the TGI [23] was > 100 µM. The TGI [24] was > 100 µM, the TGI [57] was > 100 µM and the TGI [58] was > 100 µM. The TGI [25] was > 100 µM, the TGI [26] was > 100 µM and the TGI [27] was > 100 µM. The TGI [28] was > 100 µM, the TGI [29] was > 100 µM and the TGI [30] was > 100 µM. For the same molecule, the TGI [31] was > 100 µM, the TGI [59] was > 100 µM and the TGI [60] was > 100 µM. The TGI [32] was > 100 µM, the TGI [61] was > 100 µM and the TGI [34] was > 100 µM. For the same molecule, the TGI [35] was > 100 µM, the TGI [36] was > 100 µM and the TGI [37] was > 100 µM. The TGI [38] was > 100 µM, the TGI [39] was > 100 µM and the TGI [62] was > 100 µM. The TGI [63] was > 100 µM, the TGI [64] was > 100 µM and the TGI [40] was > 100 µM. The TGI [41] was > 100 µM, the TGI [42] was > 100 µM and the TGI [43] was > 100 µM. The TGI [44] was > 100 µM, the TGI [45] was > 100 µM and the TGI [65] was > 100 µM. For the same molecule, the TGI [46] was > 100 µM, the TGI [47] was > 100 µM and the TGI [48] was > 100 µM. The TGI [50] was > 100 µM and the TGI [51] was > 100 µM.
